Results from patent US10695330B2, “Methods of treatment” (Global Blood Therapeutics, Inc., priority 2015, dated 2020).

Assays:
macrophages = assay: Production of TNF-α and IL-6 by macrophages; assay type: cell-based; details: in vitro
From the text: (§1) Reactive oxygen species (ROS) released from activated white blood cells cause lung injury as well as fibrotic changes in patients with IPF. […] Thus, the compounds described herein could also provide a method to inhibit the adverse effects of inflammation in a patient. Reduction in systemic pro-inflammatory cytokines (tumor necrosis alpha and interleukin-6) also has the potential to exert a broad anti-inflammatory effect which would supplement the beneficial effect of alleviation of hypoxemia via increased hemoglobin-O2 affinity.

[1] = test system: mice with bleomycin-induced fibrosis; assay: Bleomycin induced mouse model of hypoxemia and pulmonary fibrosis; assay type: in vivo
Description: Forty-eight C57B/L6 male mice aged 7-8 weeks were obtained from Simonsen Laboratory, Gilroy, Calif. The mice were ear tagged and weighed prior to the start of the study. The animals were distributed into four groups with twelve animals in each group. Body weights of all mice were recorded daily during the study. Animals in groups 2, 3 and 4 were administered 3 U/kg bleomycin sulfate USP (Teva Pharmaceuticals) via oropharyngeal route […] (see Walters, D. M. and S. R. Kleeberger (2008). “Mouse models of bleomycin-induced pulmonary fibrosis.” Curr Protoc Pharmacol Chapter 5: Unit 5 46.) Animals in group 1 were administered normal saline via oropharyngeal route.
Compound 1 (formulated in dimethylacetamide: polyethylene glycol 400 (PEG400): 40% cavitron at a 1:5:4 ratio) was administered at either low dose (first day 50 mg/kg followed by 40 mg/kg daily) or high dose (first day 150 mg/kg followed by 85 mg/kg daily) via oral gavage to bleomycin treated mice once daily from day 8 to day 15. Animals in group 1 were administered vehicle via oral gavage. The dosing volume was 200 μL. The study animals were sacrificed on day 15 at 4 hours post final dose.
Samples for hemoximetry and pharmacokinetics (PK) were taken 4 hours following the last dose of the dosing regimen. BAL fluid was collected from the lungs of the animals by lavaging the lung with 1 ml Hanks balanced salt media (HBSS). Lungs were harvested from each animal and weighed. They were then inflated by ˜0.5 mL of 10% NBF and fixed in a formalin container for subsequent histopathological analysis.
Hypoxia is a feature of IPF, and oxygen saturation measurements are often used clinically to evaluate the presence and severity of hypoxia. Responses to hypoxia in mice treated with Compound 1 were first evaluated by measuring arterial oxygen saturation (SaO2). On day 7 and 14 after bleomycin or saline instillation, 50 μL of arterial blood from the tail artery were used for measurement of arterial oxygen saturation (SaO2) using whole blood GEM OPL co-oximeter (Instrumentation Laboratory, MA). An additional aliquot of 100 μL of blood were collected from tail artery and arterial blood gases using the i-STAT Handheld Blood Analyzer (ABBOTT) were measured using CG4+ cartridges. For each mouse, SaO2 and arterial oxygen tension (pO2) were measured. […] In contrast, arterial oxygenation levels of vehicle treated mice further declined throughout the study (FIG. 4C). The arterial blood gases (ABG) were also analyzed on day 7 and day 14 (FIG. 4C). Data are expressed as means±SEM. […] In vehicle-treated bleomycin mice the pO2 reached a further decline at day 14.
In this bleomycin model, mice develop extensive pulmonary fibrosis as well as pulmonary inflammation; thus, the effect of Compound 1 treatment on the phenotype of pulmonary inflammatory cells was examined. The BAL fluid was centrifuged at 1,000 rpm at 4° C. for 5 minutes. The BAL cell pellets were suspended in 2 mls of 1× Pharmalyse buffer (BD Bioscience) to lyse the RBCs. PBS+2% FBS were added to stop the lysis reaction and cells centrifuged again. Leukocytes in the cell pellet were counted using a hemocytometer and the trypan blue exclusion method.
Pulmonary fibrosis was induced by administering mice a single dose of bleomycin. Collagen content of was determined by quantifying total soluble collagen in the BALF supernatant using the Sircol collagen dye binding assay according to the manufacturer's instructions (Biocolor Ltd, Carrick Fergus, UK).
Lungs were harvested from each animal and weighed at Day 15.
The histopathological analysis was conducted at Seventh Wave Laboratories, Chesterfield, Mo. The lung samples were processed and embedded with all lobes from each mouse in one paraffin block. Coronal sections through the four major lobes were stained with Masson's Trichrome. For each animal, consecutive lung fields were examined in a raster pattern using a 20× objective lens and a 10× or 40× ocular lens (200× or 800×). […]

Hb = target: T1, Hb (Mus musculus, UniProt P01942); assay: LPS-induced acute lung injury mouse model: PK/PD (Hb occupancy, hemoximetry); assay type: in vivo; details: LPS-induced ALI mice
T1 construct: from tissue; host or cells: whole blood (red blood cells) of dosed C57BL / C57BL/6J mice
T1 sequence (P01942 2-142 limits assumed): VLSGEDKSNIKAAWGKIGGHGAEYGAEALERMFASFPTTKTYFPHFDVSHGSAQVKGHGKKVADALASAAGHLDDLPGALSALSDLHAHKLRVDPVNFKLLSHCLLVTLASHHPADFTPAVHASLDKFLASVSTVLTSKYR
T1 sequence (P02088 2-147 partner limits assumed): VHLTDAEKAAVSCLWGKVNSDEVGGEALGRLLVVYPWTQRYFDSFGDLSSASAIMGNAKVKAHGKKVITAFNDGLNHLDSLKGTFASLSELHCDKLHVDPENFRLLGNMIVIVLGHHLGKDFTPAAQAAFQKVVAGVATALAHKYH
Description: Adult, 8-10-week-old male C57BL/6J mice (Jackson Laboratory, Bar Harbor, Me.), were anesthetized with isoflurane, injected with 100 μg LPS (Sigma, St. Louis, Mo.) in 100 μL PBS by direct intratracheal injection. After 24 hours, mice were given Compound 1 (70 or 140 mg/kg formulated in dimethylacetamide, polyethylene glycol 400 (PEG400) and 40% cavitron in a ratio of 1:5:4, respectively) or vehicle only (5 μL/g) by oral gavage 2 hours prior to placement in a hypoxia chamber. Mice were exposed to either 10 or 5% O2 for 4 hours. Oxygen saturation (SaO2) was measured with a pulse oximeter (STARR Life Sciences, Oakmont, Pa.) at baseline and hourly during hypoxic exposure. During hypoxic exposure, mice were monitored continuously and a moribund check was done every 15 minutes. Time to death was assessed by time to moribund status. Mice were determined to be moribund if they could not right themselves when placed in a supine position.
Blood was collected by cardiac puncture in the hypoxic chamber. Blood gases were measured using the i-STAT portable analyzer within the hypoxic environment (Abaxis, Union City, Calif.). Remaining blood samples were used for hemoximetry and pharmacokinetic analysis. For sample collection, mice were euthanized with pentobarbital overdose. A bronchoaleveolar lavage (BAL) was performed with 900 uL Saline. Blood was collected by retro orbital puncture, and then spun to collect plasma. Lungs were removed and flash frozen. All samples were stored at −80° C. until further study. BAL inflammatory cell counts and differentials were determined manually after staining cytospins with DiffQuik. BAL protein was measured using a Pierce BCA Protein Assay Kit (Thermo Scientific, Waltham, Mass.).
Hemoximetry was used to determine the PD effect of Compound 1 in whole blood from dosed mice as described above. Representative oxygen equilibrium curves (OECs) of whole blood obtained from mice dosed with Compound 1 (blue and red lines) or vehicle only (black line) are shown in FIG. 3A.

activated neutrophils = assay: Oxidative burst in activated neutrophils; assay type: cell-based; details: in vitro
From the text: as §1

In the case of `O=Cc1c(O)cccc1OC[C@@H]1CCCCN1C(=O)c1cccnc1` [Compound 1, (S)-2-hydroxy-6-((1-nicotinoylpiperidin-2-yl)methoxy)benzaldehyde], the “anti-inflammatory activity (TNF-α and IL-6 production)” value (macrophages) is reported as “anti-inflammatory activity”, the “arterial oxygen tension (pO2)” value ([1]; day 14) is reported as “tendency for an increase pO2 or prevention of further decline of pO2” and the “arterial oxygen saturation (SaO2)” value ([1]; day 14, after seven consecutive days of treatment, low and high dose) is reported as “return toward control values”. The “improvement of overall Ashcroft scores” value ([1]; day 15, P<0.01) was “approximately 50%”, the “collagen protein (total soluble collagen in BALF supernatant, Sircol)” value ([1]; day 15, P<0.05) was “significant reduction in collagen protein in the lungs” and the “total inflammatory cells recovered in BAL fluid” value ([1]; day 15, P<0.05) was “significant reduction in total inflammatory cells recovered in BAL fluid”. The lung weight ([1]; day 15, vs bleomycin vehicle control, P<0.01) was “significantly heavier than lungs from Compound 1-treated mice”, the “collagen deposition (Masson's trichrome histology)” value ([1]; day 15 lung sections, low and high dose) was “diminished collagen deposition” and the Hb occupancy (Hb; 70 mg/kg oral) was roughly 19%. The Hb occupancy (Hb; 140 mg/kg oral) was roughly 27%, the “Hb O2 affinity (left-shift in the OEC) in whole blood from dosed mice” value (Hb; 70 or 140 mg/kg oral, vs vehicle) was “dose-dependent increase in Hb O2 affinity relative to control” and the “anti-oxidative activity (oxidative burst)” value (activated neutrophils) was “displayed anti-oxidative”.
